How the values were obtained:
wild type Bcr-abl = biological target: T1, wild type Bcr-abl (Homo sapiens, UniProt P00519); experiment: Antiproliferative effect on Ba/F3 cells expressing wild type Bcr-abl; type: cell-based
T1 construct: BCR (fusion partner); expressed in transfected cells; host or cells: Ba/F3 (murine pro-B cells); the other entry of the earlier key: BCR (P11274, Breakpoint cluster region protein)
Experimental: (§1) 32D-p210 cells are plated into 96 well TC plates at a density of 15,000 cells per well. 50 μL of two fold serial dilutions of the test compound (Cmax is 40 μM) are added to each well (STI571 is included as a positive control). After incubating the cells for 48 hours at 37° C., 5% CO2, 15 μl, of MTT (Promega) is added to each well and the cells are incubated for an additional 5 hours. The optical density at 570 nm is quantified spectrophotometrically and IC50 values, the concentration of compound required for 50% inhibition, determined from a dose response curve.
(§2) Compounds of the invention are tested for their antiproliferative effect on Ba/F3 cells expressing either wild type or the mutant forms of BCR-Abl (G250E, E255V, T315I, F317L, M351T) that confers resistance or diminished sensitivity to STI571. The antiproliferative effect of these compounds on the mutant-BCR-Abl expressing cells and on the non transformed cells were tested at 10, 3.3, 1.1 and 0.37 μM as described above (in media lacking IL3). The IC50 values of the compounds lacking toxicity on the untransformed cells were determined from the dose response curves obtained as describe above.

G250E Bcr-abl = biological target: T2, G250E Bcr-abl (Homo sapiens, UniProt P00519, G250E); experiment: Antiproliferative effect on Ba/F3 cells expressing G250E Bcr-abl; type: cell-based; details: G250E mutant
T2 construct: BCR (fusion partner); expressed in transfected cells; host or cells: Ba/F3 (murine pro-B cells); the other entry of the earlier key: BCR (P11274, Breakpoint cluster region protein)
Experimental: as §1, §2

E255V Bcr-abl = biological target: T3, E255V Bcr-abl (Homo sapiens, UniProt P00519, E255V); experiment: Antiproliferative effect on Ba/F3 cells expressing E255V Bcr-abl; type: cell-based; details: E255V mutant
T3 construct: BCR (fusion partner); expressed in transfected cells; host or cells: Ba/F3 (murine pro-B cells); the other entry of the earlier key: BCR (P11274, Breakpoint cluster region protein)
Experimental: as §1, §2

T315I Bcr-abl = biological target: T4, T315I Bcr-abl (Homo sapiens, UniProt P00519, T315I); experiment: Antiproliferative effect on Ba/F3 cells expressing T315I Bcr-abl; type: cell-based; details: T315I mutant
T4 construct: BCR (fusion partner); expressed in transfected cells; host or cells: Ba/F3 (murine pro-B cells); the other entry of the earlier key: BCR (P11274, Breakpoint cluster region protein)
Experimental: as §1, §2

F317L Bcr-abl = biological target: T5, F317L Bcr-abl (Homo sapiens, UniProt P00519, F317L); experiment: Antiproliferative effect on Ba/F3 cells expressing F317L Bcr-abl; type: cell-based; details: F317L mutant
T5 construct: BCR (fusion partner); expressed in transfected cells; host or cells: Ba/F3 (murine pro-B cells); the other entry of the earlier key: BCR (P11274, Breakpoint cluster region protein)
Experimental: as §1, §2

M351T Bcr-abl = biological target: T6, M351T Bcr-abl (Homo sapiens, UniProt P00519, M351T); experiment: Antiproliferative effect on Ba/F3 cells expressing M351T Bcr-abl; type: cell-based; details: M351T mutant
T6 construct: BCR (fusion partner); expressed in transfected cells; host or cells: Ba/F3 (murine pro-B cells); the other entry of the earlier key: BCR (P11274, Breakpoint cluster region protein)
Experimental: as §1, §2

Bmx = biological target: T7, Bmx (Homo sapiens, UniProt P51813); experiment: Upstate KinaseProfiler radio-enzymatic filter binding assay, Bmx; type: biochemical; details: at a concentration of 10 μM; read-out: percentage inhibition of Bmx
T7 construct: purchased Upstate (KinaseProfiler panel)
Experimental: (§3) Compounds of the invention are assessed for their ability to inhibit individual members of the kinase panel. The compounds are tested in duplicates at a final concentration of 10 μM following this generic protocol, Note that the kinase buffer composition and the substrates vary for the different kinases included in the “Upstate KinaseProfiler™” panel. Kinase buffer (2.5 μL, 10x—containing MnCl2 when required), active kinase (0.001-0.01 Units; 2.5 μL), specific or Poly(Glu-4-Tyr) peptide (5-500 μM or 0.01 mg/ml) in kinase buffer and kinase buffer ([…]; 5 μL) are mixed in an eppendorf on ice. A Mg/ATP mix (10 μL; 67.5 (or 33.75) mM MgCl2, 450 (or 225) μM ATP and 1 μCi/μl [γ-^32P]-ATP (3000 Ci/mmol)) is added and the reaction is incubated at about 30° C. for about 10 minutes. The reaction mixture is spotted (20 μL) onto a 2 cm×2 cm P81 (phosphocellulose, for positively charged peptide substrates) or Whatman No, 1 (for Poly (Glu-4-Tyr) peptide substrate) paper square. The assay squares are washed 4 times, for 5 minutes each, with 0.75% phosphoric acid and washed once with acetone for 5 minutes. The assay squares are transferred to a scintillation vial, 5 ml scintillation cocktail are added and ^32P incorporation (cpm) to the peptide substrate is quantified with a Beckman scintillation counter. Percentage inhibition is calculated for each reaction.

c-RAF = biological target: T8, c-RAF (Homo sapiens, UniProt P04049); experiment: Upstate KinaseProfiler radio-enzymatic filter binding assay, c-RAF; type: biochemical; details: at a concentration of 10 μM; read-out: percentage inhibition of c-RAF
T8 construct: purchased Upstate (KinaseProfiler panel)
Experimental: as §3

CSK = biological target: T9, CSK (Homo sapiens, UniProt P41240); experiment: Upstate KinaseProfiler radio-enzymatic filter binding assay, CSK; type: biochemical; details: at a concentration of 10 μM; read-out: percentage inhibition of CSK
T9 construct: purchased Upstate (KinaseProfiler panel)
Experimental: as §3

Fes = biological target: T10, Fes (Homo sapiens, UniProt P07332); experiment: Upstate KinaseProfiler radio-enzymatic filter binding assay, Fes; type: biochemical; details: at a concentration of 10 μM; read-out: percentage inhibition of Fes
T10 construct: purchased Upstate (KinaseProfiler panel)
Experimental: as §3

FGFR3 = biological target: T11, FGFR3 (Homo sapiens, UniProt P22607); experiment: Upstate KinaseProfiler radio-enzymatic filter binding assay, FGFR3; type: biochemical; details: at a concentration of 10 μM; read-out: percentage inhibition of FGFR3
T11 construct: purchased Upstate (KinaseProfiler panel)
Experimental: as §3

Flt3 = biological target: T12, Flt3 (Homo sapiens, UniProt P36888); experiment: Upstate KinaseProfiler radio-enzymatic filter binding assay, Flt3; type: biochemical; details: at a concentration of 10 μM; read-out: percentage inhibition of Flt3
T12 construct: purchased Upstate (KinaseProfiler panel)
Experimental: as §3

GSK3β = biological target: T13, GSK3β (Homo sapiens, UniProt P49841); experiment: Upstate KinaseProfiler radio-enzymatic filter binding assay, GSK3β; type: biochemical; details: at a concentration of 10 μM; read-out: percentage inhibition of GSK3β
T13 construct: purchased Upstate (KinaseProfiler panel)
T13 sequence (P49841 whole entry): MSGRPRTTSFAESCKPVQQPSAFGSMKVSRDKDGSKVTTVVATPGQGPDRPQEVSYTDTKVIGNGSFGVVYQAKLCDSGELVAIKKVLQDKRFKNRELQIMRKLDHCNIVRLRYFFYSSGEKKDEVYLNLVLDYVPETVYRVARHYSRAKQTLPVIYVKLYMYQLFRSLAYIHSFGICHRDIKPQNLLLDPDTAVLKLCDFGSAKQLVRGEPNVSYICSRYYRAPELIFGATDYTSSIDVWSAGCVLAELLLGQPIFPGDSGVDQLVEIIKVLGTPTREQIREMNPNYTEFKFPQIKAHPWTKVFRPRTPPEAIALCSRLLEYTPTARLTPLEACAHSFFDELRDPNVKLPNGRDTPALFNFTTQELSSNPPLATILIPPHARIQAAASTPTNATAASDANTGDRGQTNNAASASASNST
Experimental: as §3

IR = biological target: T14, IR (Homo sapiens, UniProt P06213); experiment: Upstate KinaseProfiler radio-enzymatic filter binding assay, IR; type: biochemical; details: at a concentration of 10 μM; read-out: percentage inhibition of IR
T14 construct: purchased Upstate (KinaseProfiler panel)
Experimental: as §3

JNK1α1 = biological target: T15, JNK1α1 (Homo sapiens, UniProt P45983); experiment: Upstate KinaseProfiler radio-enzymatic filter binding assay, JNK1α1; type: biochemical; details: at a concentration of 10 μM; read-out: percentage inhibition of JNK1α1
T15 construct: purchased Upstate (KinaseProfiler panel)
T15 sequence (P45983 1-384 isoform P45983-2): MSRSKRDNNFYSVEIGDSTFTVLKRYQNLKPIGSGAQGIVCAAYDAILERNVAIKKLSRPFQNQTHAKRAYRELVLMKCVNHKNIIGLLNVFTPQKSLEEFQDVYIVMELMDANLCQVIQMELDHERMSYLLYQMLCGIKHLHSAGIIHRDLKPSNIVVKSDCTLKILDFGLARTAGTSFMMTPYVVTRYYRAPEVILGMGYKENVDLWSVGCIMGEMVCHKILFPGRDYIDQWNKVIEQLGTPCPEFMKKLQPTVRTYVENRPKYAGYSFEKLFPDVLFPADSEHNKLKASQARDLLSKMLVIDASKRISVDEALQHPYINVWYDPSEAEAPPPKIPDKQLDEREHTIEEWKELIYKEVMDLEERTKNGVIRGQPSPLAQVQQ
Experimental: as §3

JNK2α2 = biological target: T16, JNK2α2 (Homo sapiens, UniProt P45984); experiment: Upstate KinaseProfiler radio-enzymatic filter binding assay, JNK2α2; type: biochemical; details: at a concentration of 10 μM; read-out: percentage inhibition of JNK2α2
T16 construct: purchased Upstate (KinaseProfiler panel)
T16 sequence (P45984 whole entry): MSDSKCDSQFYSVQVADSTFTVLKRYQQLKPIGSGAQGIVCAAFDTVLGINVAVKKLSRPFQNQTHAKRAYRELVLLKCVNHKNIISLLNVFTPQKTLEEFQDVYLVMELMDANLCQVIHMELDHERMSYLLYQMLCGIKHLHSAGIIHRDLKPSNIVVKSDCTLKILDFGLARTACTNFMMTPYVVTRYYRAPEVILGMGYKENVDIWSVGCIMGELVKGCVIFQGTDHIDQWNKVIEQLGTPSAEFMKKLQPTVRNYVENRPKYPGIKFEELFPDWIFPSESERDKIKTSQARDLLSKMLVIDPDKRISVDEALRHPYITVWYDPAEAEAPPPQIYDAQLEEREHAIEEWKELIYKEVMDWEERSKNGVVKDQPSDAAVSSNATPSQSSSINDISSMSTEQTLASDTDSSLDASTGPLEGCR
Experimental: as §3

Lck = biological target: T17, Lck (Homo sapiens, UniProt P06239); experiment: Upstate KinaseProfiler radio-enzymatic filter binding assay, Lck; type: biochemical; details: at a concentration of 10 μM; read-out: percentage inhibition of Lck
T17 construct: purchased Upstate (KinaseProfiler panel)
T17 sequence (P06239 whole entry): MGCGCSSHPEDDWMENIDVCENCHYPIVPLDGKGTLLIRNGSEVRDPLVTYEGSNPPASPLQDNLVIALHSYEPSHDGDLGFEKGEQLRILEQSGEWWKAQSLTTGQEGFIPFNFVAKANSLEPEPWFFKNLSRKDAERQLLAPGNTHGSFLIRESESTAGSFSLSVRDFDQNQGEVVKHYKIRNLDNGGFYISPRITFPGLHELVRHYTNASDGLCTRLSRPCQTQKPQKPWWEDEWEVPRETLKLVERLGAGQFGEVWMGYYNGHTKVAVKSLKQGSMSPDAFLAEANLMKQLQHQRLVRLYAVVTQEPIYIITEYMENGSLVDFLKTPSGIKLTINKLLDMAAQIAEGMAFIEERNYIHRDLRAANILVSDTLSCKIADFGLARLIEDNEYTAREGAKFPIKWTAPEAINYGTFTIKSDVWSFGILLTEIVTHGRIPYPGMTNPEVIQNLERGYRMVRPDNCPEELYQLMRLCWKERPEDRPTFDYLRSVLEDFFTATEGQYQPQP
Experimental: as §3

MKK4 = biological target: T18, MKK4 (Mus musculus, UniProt P47809); experiment: Upstate KinaseProfiler radio-enzymatic filter binding assay, MKK4; type: biochemical; details: at a concentration of 10 μM; read-out: percentage inhibition of MKK4
T18 construct: purchased Upstate (KinaseProfiler panel)
T18 sequence (P47809 whole entry): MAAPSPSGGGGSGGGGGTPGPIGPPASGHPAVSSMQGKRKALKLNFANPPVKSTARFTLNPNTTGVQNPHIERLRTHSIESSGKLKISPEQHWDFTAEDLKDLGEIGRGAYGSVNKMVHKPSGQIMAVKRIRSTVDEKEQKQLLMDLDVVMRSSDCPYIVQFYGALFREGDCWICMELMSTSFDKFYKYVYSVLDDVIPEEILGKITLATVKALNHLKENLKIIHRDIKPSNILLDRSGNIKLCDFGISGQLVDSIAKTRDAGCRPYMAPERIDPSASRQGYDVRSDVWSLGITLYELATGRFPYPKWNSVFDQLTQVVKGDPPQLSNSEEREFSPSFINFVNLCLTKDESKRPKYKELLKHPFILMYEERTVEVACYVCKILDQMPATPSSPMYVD
From the text: (§4) “Kinase Panel” is a list of kinases comprising Abl(human), Abl(T315I), JAK2, JAK3, ALK, JNK1α1, ALK4, KDR, Aurora-A, Lck, Blk, MAFK1, Bmx, MAPKAP-K2, BRK, MEK1, CaMKII(rat), Met, CDK1/cyclinB, p70S6K, CHK2, PAK2, CK1, PDGFRα, CK2, PDK1, c-kit, Pim-2, c-RAF, PKA(h), CSK, PKBα, cSrc, PKCα, DYRK2, Plk3, EGFR, ROCK-I, Fes, Ron, FGFR3, Ros, Flt3, SAPK2α, Fms, SGK, Fyn, SIK, GSK3β, Syk, IGF-IR, Tie-2, IKKβ, TrKB, IR, WNK3, IRAK4, ZAP-70, ITK, AMPK(rat), LIMK1, Rsk2, Ax1, LKB1, SAFK2β, BrSK2, Lyn (h), SAPK3, BTK, MAPKAP-K3, SAPK4, CaMKIV, MARK1, Snk, CDK2/cyclinA, MINK, SRPK1, CDK3/cyclinE, MKK4(m), TAK1, CDK5/p25, MKK6(h), TBK1, CDK6/cyclinD3, MLCK, TrkA, CDK7/cyclinH/MAT1, MRCKβ, TSSK1, CHK1, MSK1, Yes, CK1d, MST2, ZIPK, c-Kit (D816V), MuSK, DAPK2, NEK2, DDR2, NEK6, DMPK, PAK4, DRAK1, PAR-1Bα, EphA1, PDGFRβ, EphA2, Pim-1, EphA5, PKBβ, EphB2, PKCβI, EphB4, PKCδ, FGFR1, PKCη, FGFR2, PKCθ, FGFR4, PKD2, Fgr, PKG1β, Flt1, PRK2, Hck, PYK2, HIPK2, Ret, IKKα, RIPK2, IRR, ROCK-II(human), JNK2α2, Rse, JNK3, Rsk1(h), PI3 Kγ, PI3 Kδ and PI3-Kβ. […]
(§5) Compounds of the invention are assessed for their ability to inhibit individual members of the kinase panel. […] The assay squares are transferred to a scintillation vial, 5 ml scintillation cocktail are added and ^32P incorporation (cpm) to the peptide substrate is quantified with a Beckman scintillation counter. […]

MKK6 = biological target: T19, MKK6 (Homo sapiens, UniProt P52564); experiment: Upstate KinaseProfiler radio-enzymatic filter binding assay, MKK6; type: biochemical; details: at a concentration of 10 μM; read-out: percentage inhibition of MKK6
T19 construct: purchased Upstate (KinaseProfiler panel)
T19 sequence (P52564 whole entry): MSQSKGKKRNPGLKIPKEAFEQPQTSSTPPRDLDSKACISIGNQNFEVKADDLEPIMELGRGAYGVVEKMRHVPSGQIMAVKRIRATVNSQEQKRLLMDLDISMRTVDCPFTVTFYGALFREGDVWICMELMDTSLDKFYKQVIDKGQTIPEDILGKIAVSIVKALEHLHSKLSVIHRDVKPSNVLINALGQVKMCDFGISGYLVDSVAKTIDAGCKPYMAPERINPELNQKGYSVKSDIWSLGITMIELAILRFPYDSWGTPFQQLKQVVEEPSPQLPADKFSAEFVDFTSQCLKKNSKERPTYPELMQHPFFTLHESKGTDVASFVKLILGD
From the text: as §4, §5

p70S6K = biological target: T20, p70S6K (Homo sapiens, UniProt P23443); experiment: Upstate KinaseProfiler radio-enzymatic filter binding assay, p70S6K; type: biochemical; details: at a concentration of 10 μM; read-out: percentage inhibition of p70S6K
T20 construct: purchased Upstate (KinaseProfiler panel)
T20 sequence (P23443 whole entry): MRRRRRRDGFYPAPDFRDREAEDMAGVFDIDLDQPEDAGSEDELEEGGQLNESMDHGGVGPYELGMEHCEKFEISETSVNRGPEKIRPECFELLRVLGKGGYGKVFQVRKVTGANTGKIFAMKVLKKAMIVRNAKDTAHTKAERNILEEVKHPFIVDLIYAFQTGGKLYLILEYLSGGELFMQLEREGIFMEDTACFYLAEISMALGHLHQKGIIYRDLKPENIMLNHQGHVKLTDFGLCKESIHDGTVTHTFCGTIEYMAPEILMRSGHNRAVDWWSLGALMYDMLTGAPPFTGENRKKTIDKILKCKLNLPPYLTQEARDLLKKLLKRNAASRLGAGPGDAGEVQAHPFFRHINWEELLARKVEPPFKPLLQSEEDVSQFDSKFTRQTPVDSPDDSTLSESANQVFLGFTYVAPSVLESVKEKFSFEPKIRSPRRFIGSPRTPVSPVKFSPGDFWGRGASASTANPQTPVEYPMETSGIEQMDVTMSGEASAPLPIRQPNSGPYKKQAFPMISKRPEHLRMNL
Experimental: as §3

PDGFRα = biological target: T21, PDGFRα (Homo sapiens, UniProt P16234); experiment: Upstate KinaseProfiler radio-enzymatic filter binding assay, PDGFRα; type: biochemical; details: at a concentration of 10 μM; read-out: percentage inhibition of PDGFRα
T21 construct: purchased Upstate (KinaseProfiler panel)
T21 sequence (P16234 24-1089): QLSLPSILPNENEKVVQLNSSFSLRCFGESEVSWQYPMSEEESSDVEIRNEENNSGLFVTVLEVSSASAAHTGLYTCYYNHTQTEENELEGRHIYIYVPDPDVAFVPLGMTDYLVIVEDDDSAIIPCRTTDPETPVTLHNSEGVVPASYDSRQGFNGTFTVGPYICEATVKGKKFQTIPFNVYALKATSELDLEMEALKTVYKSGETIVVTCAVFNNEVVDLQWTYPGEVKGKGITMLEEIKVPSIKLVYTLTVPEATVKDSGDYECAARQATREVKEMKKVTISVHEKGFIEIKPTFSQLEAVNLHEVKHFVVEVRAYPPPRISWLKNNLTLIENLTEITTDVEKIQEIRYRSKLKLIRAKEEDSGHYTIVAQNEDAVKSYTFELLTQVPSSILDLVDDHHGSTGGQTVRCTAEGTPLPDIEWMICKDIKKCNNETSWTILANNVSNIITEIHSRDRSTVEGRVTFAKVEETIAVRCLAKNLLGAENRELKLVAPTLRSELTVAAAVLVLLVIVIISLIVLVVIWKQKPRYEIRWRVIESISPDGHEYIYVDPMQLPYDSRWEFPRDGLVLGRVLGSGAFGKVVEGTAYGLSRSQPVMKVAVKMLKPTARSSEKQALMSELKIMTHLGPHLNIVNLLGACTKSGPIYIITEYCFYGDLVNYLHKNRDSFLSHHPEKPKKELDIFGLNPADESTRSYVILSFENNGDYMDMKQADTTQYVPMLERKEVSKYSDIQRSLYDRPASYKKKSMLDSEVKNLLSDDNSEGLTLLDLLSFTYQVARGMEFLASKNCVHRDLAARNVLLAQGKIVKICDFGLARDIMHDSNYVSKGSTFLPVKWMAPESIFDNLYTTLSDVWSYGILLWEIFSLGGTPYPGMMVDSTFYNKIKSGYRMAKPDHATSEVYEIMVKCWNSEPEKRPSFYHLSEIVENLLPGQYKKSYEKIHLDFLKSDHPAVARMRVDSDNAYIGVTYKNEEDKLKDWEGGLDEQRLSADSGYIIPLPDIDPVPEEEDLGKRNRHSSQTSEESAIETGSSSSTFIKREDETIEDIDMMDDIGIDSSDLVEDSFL
Experimental: as §3

Rsk1 = biological target: T22, Rsk1 (Homo sapiens, UniProt Q15418); experiment: Upstate KinaseProfiler radio-enzymatic filter binding assay, Rsk1; type: biochemical; details: at a concentration of 10 μM; read-out: percentage inhibition of Rsk1
T22 construct: purchased Upstate (KinaseProfiler panel)
T22 sequence (Q15418 whole entry): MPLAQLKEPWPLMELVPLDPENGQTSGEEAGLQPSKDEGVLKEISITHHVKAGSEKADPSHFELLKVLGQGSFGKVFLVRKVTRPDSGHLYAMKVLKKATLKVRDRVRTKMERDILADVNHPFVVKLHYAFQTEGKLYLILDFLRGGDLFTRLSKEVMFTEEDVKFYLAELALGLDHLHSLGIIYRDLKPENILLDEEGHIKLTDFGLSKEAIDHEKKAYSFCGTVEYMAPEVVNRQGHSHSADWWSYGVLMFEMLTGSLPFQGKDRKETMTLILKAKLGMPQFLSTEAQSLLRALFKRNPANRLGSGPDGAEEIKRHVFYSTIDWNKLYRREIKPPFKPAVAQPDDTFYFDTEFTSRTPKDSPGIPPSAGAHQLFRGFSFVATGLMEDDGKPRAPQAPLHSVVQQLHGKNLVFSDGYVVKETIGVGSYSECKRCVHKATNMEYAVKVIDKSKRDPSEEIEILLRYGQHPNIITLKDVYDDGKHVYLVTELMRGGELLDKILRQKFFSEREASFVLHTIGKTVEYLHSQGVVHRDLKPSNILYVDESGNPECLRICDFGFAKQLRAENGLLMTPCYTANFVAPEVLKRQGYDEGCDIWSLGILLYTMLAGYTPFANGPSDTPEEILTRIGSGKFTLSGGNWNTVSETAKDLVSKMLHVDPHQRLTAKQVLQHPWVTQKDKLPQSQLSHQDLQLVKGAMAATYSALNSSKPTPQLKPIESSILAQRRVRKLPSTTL
From the text: as §4, §5

SAPK2α = biological target: T23, SAPK2α (Homo sapiens, UniProt Q16539); experiment: Upstate KinaseProfiler radio-enzymatic filter binding assay, SAPK2α; type: biochemical; details: at a concentration of 10 μM; read-out: percentage inhibition of SAPK2α
T23 construct: purchased Upstate (KinaseProfiler panel)
Experimental: as §3

SAPK2β = biological target: T24, SAPK2β (Homo sapiens, UniProt Q15759); experiment: Upstate KinaseProfiler radio-enzymatic filter binding assay, SAPK2β; type: biochemical; details: at a concentration of 10 μM; read-out: percentage inhibition of SAPK2β
T24 construct: purchased Upstate (KinaseProfiler panel)
Experimental: as §3

Syk = biological target: T25, Syk (Homo sapiens, UniProt P43405); experiment: Upstate KinaseProfiler radio-enzymatic filter binding assay, Syk; type: biochemical; details: at a concentration of 10 μM; read-out: percentage inhibition of Syk
T25 construct: purchased Upstate (KinaseProfiler panel)
Experimental: as §3

TrkB = biological target: T26, TrkB (Homo sapiens, UniProt Q16620); experiment: Upstate KinaseProfiler radio-enzymatic filter binding assay, TrkB; type: biochemical; details: at a concentration of 10 μM; read-out: percentage inhibition of TrkB
T26 construct: purchased Upstate (KinaseProfiler panel)
Experimental: as §3

IC50 (wild type Bcr-abl): < 0.5 nM
IC50 (G250E Bcr-abl): 23 nM
IC50 (E255V Bcr-abl): 13 nM
IC50 (T315I Bcr-abl): 55 nM
IC50 (F317L Bcr-abl): < 0.5 nM
IC50 (M351T Bcr-abl): < 0.5 nM
inhibition at 10 µM (Bmx): 100%
inhibition at 10 µM (c-RAF): 100%
inhibition at 10 µM (CSK): 98%
inhibition at 10 µM (Fes): 100%
inhibition at 10 µM (FGFR3): 98%
inhibition at 10 µM (Flt3): 64%
inhibition at 10 µM (GSK3β): 53%
inhibition at 10 µM (IR): 60%
inhibition at 10 µM (JNK1α1): 98%
inhibition at 10 µM (JNK2α2): 99%
inhibition at 10 µM (Lck): 98%
inhibition at 10 µM (MKK4): 92%
inhibition at 10 µM (MKK6): 97%
inhibition at 10 µM (p70S6K): 98%
inhibition at 10 µM (PDGFRα): 76%
inhibition at 10 µM (Rsk1): 90%
inhibition at 10 µM (SAPK2α): 95%
inhibition at 10 µM (SAPK2β): 99%
inhibition at 10 µM (Syk): 76%
inhibition at 10 µM (TrkB): 96%
Structure (SMILES): Cc1ccc(Nc2ncc3nc(-c4cc(NC(=O)c5cccc(C(F)(F)F)c5)ccc4C)c(=O)n(C)c3n2)cn1 [Example 2, N-[4-methyl-3-(8-methyl-2-(6-methyl-pyridin-3-ylamino)7-oxo-7,8-dihydropteridin-6-yl)-phenyl]-3-trifluoromethyl-benzamide]
